In patent publication US20210299079A1, “MONOMETHYL FUMARATE-CARRIER CONJUGATES AND METHODS OF THEIR USE” (Flagship Pioneering Innovations V, Inc., priority 2018, published 2021):
Where a name gives a salt, the structure may show the parent alone.

Assays:
[1] = Stability of conjugates in Simulated Gastric Fluid (SGF); assay type: in vitro ADME; settings: SGF pH 1.6 with pepsin, 37° C., 1 μM compound
Procedure: Assay 1. Stability of conjugates in Simulated Gastric Fluid (SGF). This assay was used to assess the stability of a conjugate in a stomach.
Medium was prepared by dissolving 2 g of sodium chloride in 0.6 L in ultrapure water (MilliQ®, Millipore Sigma, Darmstadt, Germany). The pH was adjusted to 1.6 with 1N hydrochloric acid, and the volume was then adjusted to 1 L with purified water.
60 mg FaSSIF powder (Biorelevant™, London, UK) were dissolved in 500 mL buffer (above). Pepsin was added (0.1 mg/mL) (Millipore Sigma, Darmstadt, Germany), and the solution was stirred. The resulting SGF media were used fresh for each experiment.
Test compounds were dissolved in DMSO stock to 1 mM. An aliquot of the DMSO stock solution was removed and diluted in the SGF Media in 15 mL falcon tubes to generate a total compound concentration of 1 μM. A 1 mL aliquot was immediately removed and diluted once with 1 volume of acetonitrile for TO timepoint. The mixture was sealed and mixed at 37° C. in an incubator. Aliquots (1 mL) were removed at regular intervals and immediately quenched by the addition of 1 volume of acetonitrile. The resulting samples were analyzed by LC/MS to determine degradation rates in SGF.

[2] = Stability of conjugates in Simulated Intestinal Fluid (SIF); assay type: in vitro ADME; settings: SIF pH 6.7 with pancreatin, 37° C., 1 μM compound
Procedure: Assay 2. Stability of conjugates in Simulated Intestinal Fluid (SIF). This assay was used to assess the stability of a conjugate in a small intestine.
Phosphate buffer was prepared by dissolving 0.42 g of sodium hydroxide pellets and 3.95 g of monobasic sodium phosphate monohydrate and 6.19 g of sodium chloride in ultrapure water (MilliQ®, Millipore Sigma, Darmstadt, Germany). The pH was adjusted to 6.7 using aq. HCl and aq. NaOH, as necessary, and the solution was diluted with ultrapure water to produce 1 L of the pH 6.7 buffer.
112 mg FaSSIF powder (Biorelevant™, London, UK) was dissolved in 50 mL of the pH 6.7 buffer. 2 to 3 mL of the resulting solution were then added to 500 mg pancreatin (Millipore Sigma, Darmstadt, Germany). The resulting mixture was agitated by finger tapping the vessel containing the mixture until milky suspension formed. At this time, the remainder of the 50 mL FaSSiF/pH 6.7 buffer solution was added. The resulting suspension was flipped upside down 10 times to produce SIF, which was used fresh.
Test compounds were dissolved in DMSO stock to 1 mM. An aliquot of the DMSO stock solution was removed and diluted in the SIF media in 15 mL falcon tubes to produce a mixture with a tested compound concentration of 1 μM. A 1 mL aliquot was immediately removed and diluted once with 1 volume of acetonitrile for TO timepoint. The mixture was sealed and agitated at 37° C. in an incubator. Aliquots (1 mL) were removed at regular intervals and immediately quenched by the addition of 1 volume of acetonitrile. The resulting samples were analyzed by LC/MS to determine degradation rates

[3] = In vitro Colonic Material Stability Assay; assay type: in vitro ADME; settings: colonic material slurry in YCFAC media, anaerobic, 1 or 10 μM
Procedure: Assay 3. In vitro Colonic Material Stability Assay. This assay was used to assess the stability of a conjugate in a large intestine. All experiments were performed in an anaerobic chamber containing 90% nitrogen, 5% hydrogen and 5% carbon dioxide. Colonic material was resuspended as a slurry (15% w/v final concentration) in pre-reduced, anaerobically sterilized dilution blanks (Anaerobe Systems AS-908). The colonic material was then inoculated into 96 well plates containing YCFAC media (Anaerobe Systems AS-680) or other suitable media (6.7 μL slurry into 1 mL total media). Compounds or groups of compounds were added to each individual well to reach a final analyte concentration of 1 or 10 μM, and the material was mixed by pipetting. Sample was removed after set timepoints (0, 120, 240, 480, 1440, 2880 minutes after initiation of the assay), quenched with acetonitrile containing internal standard, and analyzed by LC/MS.

[4] = Gastrointestinal (GI) Exposure to Propionate (Study 1); assay type: in vivo, CD-1 mice; settings: mouse; for Propionate-d3 AUClast / Propionate-d3 Tmax: single oral dose: Propionate-d3 62 mg/kg, Compound 3-d12 110 mg/kg, Compound 6-d9 91 mg/kg
Procedure: In order to measure propionate concentrations along the GI track, CD-1 mice were orally administered a single dose of deuterated sodium propionate, Compound 3 comprising deuterated propionate, or Compound 6 comprising deuterated propionate (Propionate-d3, Compound 3-d12, and Compound 6-d9, respectively; suspension, 1% (w/v) methyl cellulose in deionized water). The amounts of compound dosed were normalized to provide approximately equimolar amounts of […] (Propionate-d3 at 62 mg/kg, Compound 3-d12 at 110 mg/kg, and Compound 6-d9 at 91 mg/kg). […] Blood samples were collected in K2EDTA tubes and stored on wet ice no more than 30 min and then further processed to plasma. GI samples were placed into separate labeled, pre-weighted collection tubes and frozen before analysis. Brain samples were homogenized prior to analysis. Samples were subsequently worked up and analyzed by LC-MS/MS for deuterated propionate concentration. Propionate concentrations versus time for different tissues are depicted in FIGS. 4A-4H and 5A-5C.

Row | Structure (SMILES) | Assay 1 (SGF) (% Remaining @ 1 hour) [1] | Assay 2 (SIF) (% @ Remaining 4 hours) [2] | Assay 3 (% Remaining at 24 h) [3] | also measured
1 | CCC(=O)OC[C@H]1O[C@H](OC(=O)/C=C/C(=O)OC)[C@H](OC(=O)CC)[C@@H](OC(=O)CC)[C@@H]1OC(=O)CC [Compound 4, Methyl ((2R,3R,4S,5R,6R)-3,4,5-tris(propionyloxy)-6-((propionyloxy)methyl)tetrahydro-2H-pyran-2-yl) fumarate] | B (B: 25-75% of the tested compound remaining) | C (C: >75% of the tested compound remaining) | B (B: 25-75% of the tested compound remaining) | –
2 | CCC(=O)O[C@@H]1[C@@H](OC(=O)CC)[C@@H](OC(=O)/C=C/C(=O)OC)OC[C@H]1OC(=O)CC [Compound 16, Methyl ((2R,3R,4S,5R)-3,4,5-tris(propionyloxy)tetrahydro-2H-pyran-2-yl) fumarate] | – | – | C (C: >75% of the tested compound remaining) | –
3 | CCC(=O)OC[C@H]1O[C@@H](OC(=O)/C=C/C(=O)OC)[C@H](N)[C@@H](OC(=O)CC)[C@@H]1OC(=O)CC.Cl [Compound 27, (2S,3R,4R,5S,6R)-2-(((E)-4-methoxy-4-oxobut-2-enoyl)oxy)-4,5-bis(propionyloxy)-6-((propionyloxy)methyl)tetrahydro-2H-pyran-3-aminium Chloride] | – | C (C: >75% of the tested compound remaining) | B (B: 25-75% of the tested compound remaining) | –
4 | CCCC(=O)OC[C@H]1O[C@H](OC(=O)/C=C/C(=O)OC)[C@H](N)[C@@H](OC(=O)CCC)[C@@H]1OC(=O)CCC.Cl [Compound 28, (2R,3R,4R,5S,6R)-4,5-bis(butyryloxy)-6-((butyryloxy)methyl)-2-(((E)-4-methoxy-4-oxobut-2-enoyl)oxy)tetrahydro-2H-pyran-3-aminium Chloride] | – | B (B: 25-75% of the tested compound remaining) | B (B: 25-75% of the tested compound remaining) | –
5 | CCC(=O)OC[C@H]1O[C@H](OC(=O)CC)[C@H](OC(=O)CC)[C@@H](OC(=O)CC)[C@H]1OC(=O)/C=C/C(=O)OC [Compound 52, 1-methyl (2R,3S,4S,5R,6R)-4,5,6-tris(propanoyloxy)-2-[(propanoyloxy)methyl]oxan-3-yl (2E)-but-2-enedioate] | C (C: >75% of the tested compound remaining) | A (A: <25% of the tested compound remaining) | – | –
6 | COC(=O)/C=C/C(=O)Oc1cc(OC(=O)/C=C/C(=O)OC)c2c(c1)O[C@H](c1ccc(OC(=O)/C=C/C(=O)OC)c(OC(=O)/C=C/C(=O)OC)c1)[C@H](OC(=O)/C=C/C(=O)OC)C2 [Compound 53, O4-[2-[(E)-4-methoxy-4-oxo-but-2-enoyl]oxy-4-[(2R,3R)-3,5,7-tris[[(E)-4-methoxy-4-oxo-but-2-enoyl]oxy]chroman-2-yl]phenyl] O1-methyl (E)-but-2-enedioate] | C (C: >75% of the tested compound remaining) | A (A: <25% of the tested compound remaining) | – | –
7 | COC(=O)/C=C/C(=O)Oc1ccc(-c2oc3cc(OC(=O)/C=C/C(=O)OC)cc(OC(=O)/C=C/C(=O)OC)c3c(=O)c2OC(=O)/C=C/C(=O)OC)cc1 [Compound 54, 01-methyl O4-[4-[3,5,7-tris[[(E)-4-methoxy-4-oxo-but-2-enoyl]oxy]-4-oxo-chromen-2-yl]phenyl] (E)-but-2-enedioate] | C (C: >75% of the tested compound remaining) | A (A: <25% of the tested compound remaining) | – | –
8 | COC(=O)/C=C/C(=O)Oc1cc(OC(=O)/C=C/C(=O)OC)c2c(=O)c(OC(=O)/C=C/C(=O)OC)c(-c3ccc(OC(=O)/C=C/C(=O)OC)c(OC(=O)/C=C/C(=O)OC)c3)oc2c1 [Compound 55, O4-[2-[(E)-4-methoxy-4-oxo-but-2-enoyl]oxy-4-[3,5,7-tris[[(E)-4-methoxy-4-oxo-but-2-enoyl]oxy]-4-oxo-chromen-2-yl]phenyl] O1-methyl (E)-but-2-enedioate] | C (C: >75% of the tested compound remaining) | A (A: <25% of the tested compound remaining) | – | –
9 | COC(=O)/C=C/C(=O)Oc1ccc(-c2oc3cc(OC(=O)/C=C/C(=O)OC)cc(OC(=O)/C=C/C(=O)OC)c3c(=O)c2O)cc1 [Compound 56, O4-[4-[3-hydroxy-5,7-bis[[(E)-4-methoxy-4-oxo-but-2-enoyl]oxy]-4-oxo-chromen-2-yl]phenyl] O1-methyl (E)-but-2-enedioate] | C (C: >75% of the tested compound remaining) | A (A: <25% of the tested compound remaining) | – | –
10 | [2H]C([2H])([2H])CC(=O)[O-].[Na+] [Propionate-d3, sodium propionate-d3, reference compound] | – | – | – | Propionate-d3 AUClast ([4]; Brain): below quantitative; Propionate-d3 Tmax ([4]; Brain): 15 min; Propionate-d3 AUClast ([4]; Cecum): 76 nmol·h/g; Propionate-d3 Tmax ([4]; Cecum): 15 min; Propionate-d3 AUClast ([4]; Distal Colon): 31 nmol·h/g; Propionate-d3 Tmax ([4]; Distal Colon): 15 min; Propionate-d3 AUClast ([4]; Distal Intestine): 6.6 nmol·h/g; Propionate-d3 Tmax ([4]; Distal Intestine): 30 min; Propionate-d3 AUClast ([4]; Proximal Colon): 46 nmol·h/g; Propionate-d3 Tmax ([4]; Proximal Colon): 15 min; Propionate-d3 AUClast ([4]; Proximal Intestine): 13 nmol·h/g; Propionate-d3 Tmax ([4]; Proximal Intestine): 15 min; Propionate-d3 AUClast ([4]; Stomach): 7020 nmol·h/g; Propionate-d3 Tmax ([4]; Stomach): 15 min; region where the highest concentrations (Cmax) of propionate-d3 were observed ([4]; single oral dose, GI tissues): stomach
